Measurements from patent US9408387B2, “Safening 6-amino-2-(substituted phenyl)-5-substituted-4-pyrimidinecarboxylate herbicide injury on cereal crops” (Dow AgroSciences LLC, priority 2009, dated 2016).

Legend:
Type in all cases: in vivo
[1] = system: CIRAR; assay: Postemergence herbicidal activity, greenhouse, visual injury: CIRAR; conditions: for CIRAR Ob (visual injury): 20-22 d
Experimental: (§1) Evaluation of Postemergence Herbicidal Safening in Cereal Crops
(§2) Seeds of the desired test plant species were planted in Sun Gro MetroMix® 306 planting mixture, which typically has a pH of 6.0 to 6.8 and an organic matter content of about 30 percent, in plastic pots with a surface area of 103.2 square centimeters (cm^2). When required to ensure good germination and healthy plants, a fungicide treatment and/or other chemical or physical treatment was applied. The plants were grown for 7-36 days (d) in a greenhouse with an approximate 14-hour (h) photoperiod which was maintained at about 18° C. during the day and 17° C. during the night. Nutrients and water were added on a regular basis and supplemental lighting was provided with overhead metal halide 1000-Watt lamps as necessary. The plants were employed for testing when they reached the second or third true leaf stage.
(§3) Treatments consisted of the acids or esters of compounds 1-10 and cloquintocet-mexyl (CQC-M), fenchlorazole-ethyl, mefenpyr-diethyl alone and in combination. Weighed amounts of acid or methyl esters of the compounds of formula (I) were dissolved in a volume of 97:3 v/v acetone/dimethylsulfoxide (DMSO) to obtain concentrated solutions. […] The concentrated solutions of the test compound were diluted with the addition of an aqueous mixture containing acetone, water, isopropyl alcohol, DMSO, Agri-Dex crop oil concentrate, and Triton® X-77 surfactant in a 64.7:26.0:6.7:2.0:0.7:0.01 v/v ratio. Test compounds were diluted to the appropriate application rate with a dilution solution which was prepared by mixing the appropriate volume of 97:3 v/v acetone/DMSO and the appropriate volume of an aqueous mixture containing acetone, water, isopropyl alcohol, DMSO, Agri-Dex crop oil concentrate, and Triton® X-77 surfactant in a 64.7:26.0:6.7:2.0:0.7:0.01 v/v ratio. Compound requirements are based upon a 12 mL application volume at a rate of 187 liters per hectare (L/ha). The concentrated solutions of the safener were prepared following the same procedure. Weighed amounts of safener were dissolved in a volume of 97:3 v/v acetone/DMSO to obtain concentrated safener solutions.
(§4) Spray solutions of the herbicide safener and test compound mixtures were prepared by adding the concentrated solutions to the appropriate amount of dilution solution to form 12 mL spray solution with active ingredients in combinations.
(§5) Formulated compounds were applied to the plant material with an overhead Mandel track sprayer equipped with 8002E nozzles calibrated to deliver 187 L/ha over an application area of 0.503 square meters (m^2) at a spray height of 18 inches (43 centimeters (cm)) above average plant canopy. Control plants were sprayed in the same manner with the solvent blank.
(§6) The treated plants and control plants were placed in a greenhouse as described above and watered by sub-irrigation to prevent wash-off of the test compounds. After 20-22 d, the condition of the test plants as compared with that of the control plants was determined visually and scored on a scale of 0 to 100 percent where 0 corresponds to no injury and 100 corresponds to complete kill.
(§7) Colby's equation was used to determine the herbicidal effects expected from the mixtures (Colby, S. R. Calculation of the synergistic and antagonistic response of herbicide combinations. Weeds 1967, 15, 20-22.).
(§8) The following equation was used to calculate the expected activity of mixtures containing two active ingredients, A and B: Expected=A+B−(A×B/100)
(§9) A=observed efficacy of active ingredient A at the same concentration as used in the mixture.
(§10) B=observed efficacy of active ingredient B at the same concentration as used in the mixture.

[2] = system: GALAP; assay: Postemergence herbicidal activity, greenhouse, visual injury: GALAP; conditions: 20-22 d
Experimental: as §1, §2, §3, §4, §5, §6, §7
(§11) The following equation was used to calculate the expected activity of mixtures containing two active ingredients, A and B: Expected=A+B−(A×B/100) […]

[3] = system: kochia (Kochia scoparia L; KCHSC); assay: Postemergence herbicidal activity, greenhouse, visual injury: kochia; conditions: for KCHSC Ob (visual injury): 20-22 d
Experimental: as §1, §2, §3, §4, §5, §6, §7, §8, §9, §10

[4] = system: wild mustard (Sinapis arvensis L.; SINAR); assay: Postemergence herbicidal activity, greenhouse, visual injury: SINAR
[5] = system: corn poppy (Papaver rhoeas L; PAPRH); assay: Postemergence herbicidal activity, greenhouse, visual injury: corn poppy; conditions: for PAPRH Ob (visual injury): 20-22 d
Experimental: as §1, §2, §3, §4, §5, §6, §7, §8, §9, §10

[6] = system: AMARE; assay: Postemergence herbicidal activity, greenhouse, visual injury: AMARE; conditions: 20-22 d
Experimental: as §1, §2, §3, §4, §5, §6, §7, §11

[7] = system: purple deadnettle (Lamium purpureum L; LAMPU); assay: Postemergence herbicidal activity, greenhouse, visual injury: purple deadnettle
Experimental: as §1, §2, §3, §4, §5, §6, §7, §8, §9, §10

[8] = system: spring barley (Hordeum vulgare L; HORVS); assay: Postemergence herbicidal safening in cereal crops, greenhouse, visual injury: spring barley
Experimental: as §1, §2, §3, §4, §5, §6, §7, §8, §9, §10

[9] = system: wild pansy (Viola tricolor; VIOTR); assay: Postemergence herbicidal activity, greenhouse, visual injury: VIOTR
[10] = system: winter barley (Hordeum vulgare L; HORVW); assay: Postemergence herbicidal safening in cereal crops, greenhouse, visual injury: winter barley; conditions: 20-22 d
Experimental: as §1, §2, §3, §4, §5, §6, §7, §8, §9, §10

[11] = system: MATCH; assay: Postemergence herbicidal activity, greenhouse, visual injury: MATCH; conditions: for MATCH Ob (visual injury): 20-22 d
Experimental: as §1, §2, §3, §4, §5, §6, §7, §8, §9, §10

[12] = Compound 10 0, CQC-M 8.75 g ae/ha
[13] = Compound 10 0, CQC-M 17.5 g ae/ha
[14] = Compound 10 0, CQC-M 35 g ae/ha
[15] = Compound 10 0, CQC-M 70 g ae/ha
[16] = Compound 10 0, CQC-M 140 g ae/ha

CCCCCC(C)OC(=O)COc1ccc(Cl)c2cccnc12 (stereo not drawn) [CQC-M, cloquintocet-mexyl, reference compound]
0%: CIRAR Ob (Observed values, % control) [1, 12] | CIRAR Ob (Observed values, % control) [1, 13] | CIRAR Ob (Observed values, % control) [1, 14] | CIRAR Ob (Observed values, % control) [1, 15] | CIRAR Ob (Observed values, % control) [1, 16] | CIRAR Ob (visual injury) ([1]; safener alone 70 g/ha) | CIRAR Ob (visual injury) ([1]; safener alone 140 g/ha) | GALAP Ob (visual injury) ([2]; safener alone 35 g/ha) | GALAP Ob (visual injury) ([2]; safener alone 70 g/ha) | GALAP Ob (visual injury) ([2]; safener alone 140 g/ha) | KCHSC Ob (Observed values, % control) [3, 12] | KCHSC Ob (Observed values, % control) [3, 13] | KCHSC Ob (Observed values, % control) [3, 14] | KCHSC Ob (Observed values, % control) [3, 15] | KCHSC Ob (Observed values, % control) [3, 16] | KCHSC Ob (visual injury) ([3]; safener alone 8.75 g/ha) | KCHSC Ob (visual injury) ([3]; safener alone 70 g/ha) | KCHSC Ob (visual injury) ([3]; safener alone 140 g/ha) | SINAR Ob (Observed values, % control) [4, 12] | SINAR Ob (Observed values, % control) [4, 13] | SINAR Ob (Observed values, % control) [4, 14] | SINAR Ob (Observed values, % control) [4, 15] | SINAR Ob (Observed values, % control) [4, 16] | PAPRH Ob (Observed values, % control) [5, 12] | PAPRH Ob (Observed values, % control) [5, 13] | PAPRH Ob (Observed values, % control) [5, 14] | PAPRH Ob (Observed values, % control) [5, 15] | PAPRH Ob (Observed values, % control) [5, 16] | PAPRH Ob (visual injury) ([5]; safener alone 8.75 g/ha) | PAPRH Ob (visual injury) ([5]; safener alone 70 g/ha) | PAPRH Ob (visual injury) ([5]; safener alone 140 g/ha) | AMARE Ob (visual injury) ([6]; safener alone 35 g/ha) | AMARE Ob (visual injury) ([6]; safener alone 70 g/ha) | AMARE Ob (visual injury) ([6]; safener alone 140 g/ha) | LAMPU Ob (Observed values, % control) [7, 12] | LAMPU Ob (Observed values, % control) [7, 13] | LAMPU Ob (Observed values, % control) [7, 14] | LAMPU Ob (Observed values, % control) [7, 15] | LAMPU Ob (Observed values, % control) [7, 16] | pest or weed control at 35 g/ha ([7]; Lamium purpureum, post-emergence, 480 h, safener alone 35 g/ha, 20-22 d, read-out: LAMPU Ob (visual injury)) | pest or weed control at 140 g/ha ([7]; Lamium purpureum, post-emergence, 480 h, safener alone 140 g/ha, 20-22 d, read-out: LAMPU Ob (visual injury)) | pest or weed control at 0.547 g/ha ([8]; Hordeum vulgare, post-emergence, 480 h, safener alone 0.547 g/ha, 20-22 d, read-out: HORVS Ob (visual injury)) | pest or weed control at 2.1875 g/ha ([8]; Hordeum vulgare, post-emergence, 480 h, safener alone 2.1875 g/ha, 20-22 d, read-out: HORVS Ob (visual injury)) | pest or weed control at 8.75 g/ha ([8]; Hordeum vulgare, post-emergence, 480 h, safener alone 8.75 g/ha, 20-22 d, read-out: HORVS Ob (visual injury)) | HORVS Ob (Observed values, % control) ([8]; in vivo) | VIOTR Ob (Observed values, % control) [9, 12] | VIOTR Ob (Observed values, % control) [9, 13] | VIOTR Ob (Observed values, % control) [9, 14] | VIOTR Ob (Observed values, % control) [9, 15] | VIOTR Ob (Observed values, % control) [9, 16] | HORVW Ob (visual injury) ([10]; safener alone 0.547 g/ha) | HORVW Ob (visual injury) ([10]; safener alone 2.1875 g/ha) | HORVW Ob (visual injury) ([10]; safener alone 8.75 g/ha) | HORVW Ob (visual injury) ([10]; safener alone 35 g/ha) | HORVW Ob (visual injury) ([10]; safener alone 70 g/ha) | HORVW Ob (visual injury) ([10]; safener alone 140 g/ha) | MATCH Ob (Observed values, % control) [11, 12] | MATCH Ob (Observed values, % control) [11, 13] | MATCH Ob (Observed values, % control) [11, 14] | MATCH Ob (Observed values, % control) [11, 15] | MATCH Ob (Observed values, % control) [11, 16] | MATCH Ob (visual injury) ([11]; safener alone 70 g/ha) | MATCH Ob (visual injury) ([11]; safener alone 140 g/ha)
